Experimental data reported in patent US9833497B2, “Human originated EGF domain proteins and use of the same” (CHENGDU SOURCEBIO LIMITED-LIABILITY COMPANY, priority 2013, dated 2017).

Experiments:
Assay type in all cases: cell-based
Moraxella catarrhalis = test: MIC against Gram-negative bacteria: Moraxella catarrhalis; details: 5×10^5 CFU/mL; for MIC against M. catarrhalis: Moraxella catarrhalis
Protocol: (§1) 1. Gram-negative bacteria, such as E. coli BL21, Pseudomonas aeruginosa, Klebsiella pneumonia, Enterobacter cloacae, Aeromonas hydrophila, Citrobacter diversus, Moraxella catarrhalis, Proteus mirabilis, Proteus vulgaris, Serratia marcescens, etc were streaked on solid LB medium and cultured respectively. Then, typical clones were picked, inoculated into common liquid LB medium respectively, and cultured at 37° C. with shaking at 185 rpm until the McFarland specific turbidity was 0.5. The bacterial culture of each of Gram-negative bacteria was centrifuged at 4000×g for 3 min, the supernatant was discarded, and the thalli were resuspended with fresh LB medium.
(§2) 2. The above-mentioned bacterial suspensions were diluted and inoculated into 96-well plates with the final concentration of the bacterial suspension being 5×10^5 CFU/mL per well.
(§3) 3. Each of the purified human-originated EGF domain proteins (PRT1 to PRT1498 in Table 1) was added to each of the above wells and subjected to two-fold serial dilution in concentration. Three parallel wells were set up for each concentration in the gradient.
(§4) 4. The above-mentioned 96-well plates were placed and cultured at 37° C. in shaking incubator shaking at 175 rpm. […] The minimal inhibitory concentration MIC is defined as the lowest concentration of the recombinant protein at which there is no growth of the bacteria.

E. coli BL21 = test: MIC against Gram-negative bacteria: E. coli BL21; details: 5×10^5 CFU/mL
Protocol: as §1, §2, §3, §4

E. coli DH5α = test: Antibacterial activity: MIC and growth curve against E. coli DH5α in 96-well plate; details: minimal inhibitory concentration against E. coli DH5α; 96-well plate, 5×10^5 CFU/mL, 37° C., judged after 8 h
Protocol: 1. E. coli DH5α was exemplified. E. coli DH5α was streaked and cultured on LB solid medium. Then, a typical clone was picked and inoculated into common LB liquid medium, cultured at 37° C. with shaking at 185 rpm until the logarithmic growth phase was reached (OD600 of about 0.5). The bacterial culture was centrifuged at 4000×g for 3 min, the supernatant was discarded, and the thalli were resuspended with fresh LB medium.
2. The above-mentioned bacterial suspension was diluted and inoculated into a 96-well plate with the total volume of 100 μL per well and a bacterial count of 5×10^5 CFU/mL.
3. The recombinant protein hF VII-EGF1 was added to the above-mentioned wells with the final protein concentration in the well of the highest protein concentration being 50 μg/mL. Basing on this final concentration, a two-fold serial dilution was performed till a protein concentration gradient consisting of 50, 25, and 12.5 μg/mL was set up. Three parallel wells were set up for each concentration in the gradient.
4. The above-mentioned 96-well plate was placed and cultured at 37° C. in shaking incubator shaking at 175 rpm. Samples were taken every 30 min, the absorbance values were determined at 600 nm wavelength under a ultra violet spectrophotometer, and an inhibition curve was plotted. […] The minimal inhibitory concentration MIC is defined as the lowest concentration of the recombinant protein at which there is no growth of the bacteria.
According to the experimental procedures in Example 14, the minimal inhibitory concentrations (MIC, μg/mL) of the other human-originated EGF domain proteins (PRT2 to PRT1498 in Table 1) for E. coli DH5α were determined.

Serratia marcescens = test: MIC against Gram-negative bacteria: Serratia marcescens; details: 5×10^5 CFU/mL; for MIC against S. marcescens: Serratia marcescens
Protocol: as §1, §2, §3, §4

Proteus mirabilis = test: MIC against Gram-negative bacteria: Proteus mirabilis; details: 5×10^5 CFU/mL; for MIC against P. mirabilis: Proteus mirabilis
Protocol: as §1, §2, §3, §4

Klebsiella pneumonia = test: MIC against Gram-negative bacteria: Klebsiella pneumonia; details: 5×10^5 CFU/mL; for MIC against K. pneumonia: Klebsiella pneumonia
Protocol: as §1, §2, §3, §4

Enterobacter cloacae = test: MIC against Gram-negative bacteria: Enterobacter cloacae; details: 5×10^5 CFU/mL; for MIC against E. cloacae: Enterobacter cloacae
Protocol: as §1, §2, §3, §4

Citrobacter diversus = test: MIC against Gram-negative bacteria: Citrobacter diversus; details: 5×10^5 CFU/mL; for MIC against C. diversus: Citrobacter diversus
Protocol: as §1, §2, §3, §4

Aeromonas hydrophila = test: MIC against Gram-negative bacteria: Aeromonas hydrophila; details: 5×10^5 CFU/mL; for MIC against A. hydrophila: Aeromonas hydrophila
Protocol: as §1, §2, §3, §4

Pseudomonas aeruginosa = test: MIC against Gram-negative bacteria: Pseudomonas aeruginosa; details: 5×10^5 CFU/mL; for MIC against P. aeruginosa: Pseudomonas aeruginosa
Protocol: as §1, §2, §3, §4

Proteus vulgaris = test: MIC against Gram-negative bacteria: Proteus vulgaris; details: 5×10^5 CFU/mL; for MIC against P. vulgaris: Proteus vulgaris
Protocol: as §1, §2, §3, §4

[1] = E. coli BL21, 10 h cultivation at 37° C.

## PRT148 (LTDICSVSNGGCHPDASCSSTLGSLPLCTCLPGYTGN; listed as Homo sapiens)
Moraxella catarrhalis; M. catarrhalis, 10 h cultivation at 37° C.
  MIC (μg/mL) M. catarrhalis: 12.5 µg/mL
E. coli BL21; [1]
  MIC (μg/mL) E. coli BL21: 50 µg/mL
E. coli DH5α
  MIC: 25 µg/mL
Serratia marcescens; S. marcescens, 10 h cultivation at 37° C.
  MIC (μg/mL) S. marcescens: 50 µg/mL
Proteus mirabilis; P. mirabilis, 10 h cultivation at 37° C.
  MIC (μg/mL) P. mirabilis: 50 µg/mL
Klebsiella pneumonia; K. pneumonia, 10 h cultivation at 37° C.
  MIC (μg/mL) K. pneumonia: 12.5 µg/mL
Enterobacter cloacae; E. cloacae, 10 h cultivation at 37° C.
  MIC (μg/mL) E. cloacae: 50 µg/mL
Citrobacter diversus; C. diversus, 10 h cultivation at 37° C.
  MIC (μg/mL) C. diversus: 50 µg/mL
Aeromonas hydrophila; A. hydrophila, 10 h cultivation at 37° C.
  MIC (μg/mL) A. hydrophila: 12.5 µg/mL
Pseudomonas aeruginosa; P. aeruginosa, 10 h cultivation at 37° C.
  MIC (μg/mL) P. aeruginosa: 25 µg/mL
Proteus vulgaris; P. vulgaris, 10 h cultivation at 37° C.
  MIC (μg/mL) P. vulgaris: 12.5 µg/mL

## PRT729 (GSNACNQPTHPNGDCSHFCFPVPNFQRVCGCPYGMRLASNHLTCE; listed as Homo sapiens)
Moraxella catarrhalis; 96-well plate, 37° C., 10 h
  MIC M. catarrhalis: 25 µg/mL
E. coli BL21; 96-well plate, 37° C., 10 h
  MIC E. coli BL21: 25 µg/mL
E. coli DH5α
  MIC: 12.5 µg/mL
Serratia marcescens; 96-well plate, 37° C., 10 h
  MIC S. marcescens: 50 µg/mL
Proteus mirabilis; 96-well plate, 37° C., 10 h
  MIC P. mirabilis: 12.5 µg/mL
Klebsiella pneumonia; 96-well plate, 37° C., 10 h
  MIC K. pneumonia: 25 µg/mL
Enterobacter cloacae; 96-well plate, 37° C., 10 h
  MIC E. cloacae: 12.5 µg/mL
Citrobacter diversus; 96-well plate, 37° C., 10 h
  MIC C. diversus: 12.5 µg/mL
Aeromonas hydrophila; 96-well plate, 37° C., 10 h
  MIC A. hydrophila: 25 µg/mL
Pseudomonas aeruginosa; 96-well plate, 37° C., 10 h
  MIC P. aeruginosa: 12.5 µg/mL
Proteus vulgaris; 96-well plate, 37° C., 10 h
  MIC P. vulgaris: 25 µg/mL

## PRT1275 (EGMNCMNKNHGCAHICRETPKGGIACECRPGFELTKNQRDCK; listed as Homo sapiens)
Moraxella catarrhalis; 96-well plate, 37° C., 10 h
  MIC against M. catarrhalis: 12.5 µg/mL
E. coli BL21; E. coli BL21, 96-well plate, 37° C., 10 h
  MIC against E. coli BL21: 50 µg/mL
E. coli DH5α
  MIC: 12.5 µg/mL
Serratia marcescens; 96-well plate, 37° C., 10 h
  MIC against S. marcescens: 12.5 µg/mL
Proteus mirabilis; 96-well plate, 37° C., 10 h
  MIC against P. mirabilis: 50 µg/mL
Klebsiella pneumonia; 96-well plate, 37° C., 10 h
  MIC against K. pneumonia: 50 µg/mL
Enterobacter cloacae; 96-well plate, 37° C., 10 h
  MIC against E. cloacae: 12.5 µg/mL
Citrobacter diversus; 96-well plate, 37° C., 10 h
  MIC against C. diversus: 50 µg/mL
Aeromonas hydrophila; 96-well plate, 37° C., 10 h
  MIC against A. hydrophila: 50 µg/mL
Pseudomonas aeruginosa; 96-well plate, 37° C., 10 h
  MIC against P. aeruginosa: 12.5 µg/mL
Proteus vulgaris; 96-well plate, 37° C., 10 h
  MIC against P. vulgaris: 25 µg/mL

## PRT1458 (CNCHLSGALNETCHLVTGQCFCKQFVTGSKCDACVPSASHLDVNNLLGCSK; listed as Homo sapiens)
Moraxella catarrhalis; 10 h cultivation at 37° C.
  MIC against M. catarrhalis: 25 µg/mL
E. coli BL21; [1]
  MIC against E. coli BL21: 12.5 µg/mL
E. coli DH5α
  MIC: 12.5 µg/mL
Serratia marcescens; 10 h cultivation at 37° C.
  MIC against S. marcescens: 50 µg/mL
Proteus mirabilis; 10 h cultivation at 37° C.
  MIC against P. mirabilis: 12.5 µg/mL
Klebsiella pneumonia; 10 h cultivation at 37° C.
  MIC against K. pneumonia: 12.5 µg/mL
Enterobacter cloacae; 10 h cultivation at 37° C.
  MIC against E. cloacae: 25 µg/mL
Citrobacter diversus; 10 h cultivation at 37° C.
  MIC against C. diversus: 25 µg/mL
Aeromonas hydrophila; 10 h cultivation at 37° C.
  MIC against A. hydrophila: 50 µg/mL
Pseudomonas aeruginosa; 10 h cultivation at 37° C.
  MIC against P. aeruginosa: 25 µg/mL
Proteus vulgaris; 10 h cultivation at 37° C.
  MIC against P. vulgaris: 25 µg/mL
